Reference: US20250084074A1, “SUBSTITUTED HETEROCYCLES AS HSET INHIBITORS” (MERCK PATENT GMBH, priority 2022, published 2025)
pIC50: −log10 of the molar value. Where a name gives a salt, the structure may show the parent alone.

molecular target: HSET full length protein (Homo sapiens (Human), UniProt Q9BW19); assay: HSET ADP-Glo Assay S - 3 μM ATP; format: biochemical; conditions: 5 nM HSET, 70 μg/mL microtubule, 80 min at rt, read-out: COMBINED HSET ADP GLO IC50
Summary of the method: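 ADP-Glo luminescence read-out: ATPase reaction at 3 μM ATP, 80 min at room temperature, after a 10 min compound preincubation. Enzyme was full-length human HSET at 5 nM, stimulated by 70 μg/mL paclitaxel-stabilised bovine microtubules in HEPES pH 6.8 buffer with MgCl2, EGTA, Triton X-100 and DTT.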

Sequence of HSET full length protein (Q9BW19 whole entry): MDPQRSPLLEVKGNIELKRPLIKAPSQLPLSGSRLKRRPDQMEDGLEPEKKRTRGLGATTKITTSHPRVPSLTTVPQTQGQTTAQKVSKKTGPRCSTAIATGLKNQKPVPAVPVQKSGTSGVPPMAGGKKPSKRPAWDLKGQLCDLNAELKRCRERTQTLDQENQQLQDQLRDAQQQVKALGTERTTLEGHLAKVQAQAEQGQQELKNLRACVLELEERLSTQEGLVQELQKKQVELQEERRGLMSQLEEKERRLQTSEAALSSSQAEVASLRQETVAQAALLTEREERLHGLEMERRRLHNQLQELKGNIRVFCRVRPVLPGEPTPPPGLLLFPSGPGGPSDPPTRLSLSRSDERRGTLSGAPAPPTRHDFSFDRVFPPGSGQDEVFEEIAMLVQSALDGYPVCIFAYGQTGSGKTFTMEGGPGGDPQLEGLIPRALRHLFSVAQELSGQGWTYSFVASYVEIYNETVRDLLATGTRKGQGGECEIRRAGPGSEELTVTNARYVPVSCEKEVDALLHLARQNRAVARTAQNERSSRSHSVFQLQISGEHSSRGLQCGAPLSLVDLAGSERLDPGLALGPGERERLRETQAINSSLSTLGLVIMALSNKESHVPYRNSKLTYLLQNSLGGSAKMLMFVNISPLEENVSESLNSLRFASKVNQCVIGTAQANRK

| SMILES | pIC50 |
| --- | --- |
| CCOC(=O)c1sc(NC(=O)[C@H]2C[C@@H](Nc3nccc4ccc(-c5noc(C)n5)cc34)C2)nc1C(F)F [Example 116, Ethyl-4-(difluoromethyl)-2-[[3-[[7-(5-methyl-1,2,4-oxadiazol-3-yl)-1-isoquinolyl]amino]cyclobutanecarbonyl]amino]thiazole-5-carboxylate] | 6.84 |
| CCOC(=O)n1cc(NC(=O)CCNC(=O)c2cccc(-c3noc(C)n3)c2)nc1C [Example 265] | 5.65 |
| Cc1nc(-c2ccc3ccnc(N[C@H]4C[C@@H](C(=O)Nc5ncc(C(F)(F)C(F)(F)F)s5)C4)c3c2)no1 [Example 96, 3-[[7-(5-methyl-1,2,4-oxadiazol-3-yl)-1-isoquinolyl]amino]-N-[5-(1,1,2,2,2-pentafluoroethyl)thiazol-2-yl]cyclobutanecarboxamide] | 5.66 |
| Cc1nc(-c2ccc3ccnc(NCCC(=O)Nc4ncc(C(C)(C)C)s4)c3c2)no1 [Example 80, N-(5-(tert-butyl)thiazol-2-yl)-3-((7-(5-methyl-1,2,4-oxadiazol-3-yl)isoquinolin-1-yl)amino)propanamide] | 6.70 |
| Cc1nc(-c2ccc3ncnc(N[C@H]4C[C@@H](C(=O)Nc5nc(C)c(C(=O)OC(C)(C)C)s5)C4)c3c2)no1 [Example 48, tert-Butyl 4-methyl-2-((1 s,3s)-3-((6-(5-methyl-1,2,4-oxadiazol-3-yl)quinazolin-4-yl)amino)cyclobutane-1-carboxamido)thiazole-5-carboxylate] | 7.17 |
| CCCCCc1cc(NC(=O)[C@H]2C[C@@H](Nc3nccc4ccc(-c5noc(C)n5)cc34)C2)nn1C [Example 101, (1s,3s)-3-((7-(5-methyl-1,2,4-oxadiazol-3-yl)isoquinolin-1-yl)amino)-N-(1-methyl-5-pentyl-1 H-pyrazol-3-yl)cyclobutane-1-carboxamide] | 6.56 |
| Cc1ccc2ccnc(N[C@H]3C[C@@H](C(=O)Nc4nc(C)c(C(C)(C)C)s4)C3)c2c1 [Example 117, N-(5-tert-butyl-4-methyl-thiazol-2-yl)-3-[(7-methyl-1-isoquinolyl)amino]cyclobutanecarboxamide] | 5.02 |
| CNCCC[C@@H](CC(=O)Nc1nc(C)c(C(=O)OC2CCCC2)s1)NC(=O)c1cccc(-c2noc(C)n2)c1 [Example 155, Cyclopentyl (S)-4-methyl-2-(3-(3-(5-methyl-1,2,4-oxadiazol-3-yl)benzamido)-6-(methylamino)hexanamido)thiazole-5-carboxylate] | 7.96 |
| Cc1nc(-c2ccc3ccnc(N[C@@H]4CCN(C(=O)Nc5nc(C)c(C(=O)OC(C)(C)C)s5)C4)c3c2)no1 [Example 225, tert-Butyl 4-methyl-2-[[(3R)-3-[[7-(5-methyl-1,2,4-oxadiazol-3-yl)-1-isoquinolyl]amino]pyrrolidine-1-carbonyl]amino]thiazole-5-carboxylate] | 5.78 |
| CCOC(=O)c1cccc(C(=O)NCCC(=O)Nc2nc(C)c(C(=O)OCC)s2)c1 [Example 42, Ethyl 2-(3-(3-(ethoxycarbonyl)benzamido)propanamido)-4-methylthiazole-5-carboxylate] | 5.75 |
| CCCOC(=O)c1sc(NC(=O)[C@@H](O)CNc2nccc3ccc(-c4noc(C)n4)cc23)nc1C [Example 178, Propyl (S)-2-(2-hydroxy-3-((7-(5-methyl-1,2,4-oxadiazol-3-yl)isoquinolin-1-yl)amino)propanamido)-4-methylthiazole-5-carboxylate] | 8.70 |
| Cc1nc(NC(=O)C[C@@H](CC#N)NC(=O)c2cccc(-c3cnn(C)c3)n2)sc1C(=O)OC(C)(C)C [Example 212, tert-Butyl 2-[(3R)-4-cyano-3-{[6-(1-methyl-1 H-pyrazol-4-yl)pyridin-2-yl]formamido}butanamido]-4-methyl-1,3-thiazole-5-carboxylate] | 5.47 |
| Cc1nc(-c2cccc(C(=O)NCCC(=O)Nc3nc(C)c(C(=O)OCC(C)C)s3)c2)no1 [Example 68, Isobutyl 4-methyl-2-(3-(3-(5-methyl-1,2,4-oxadiazol-3-yl)benzamido)propanamido)thiazole-5-carboxylate] | 7.48 |
| Cc1nc(-c2ccc3ccnc(N[C@H]4C[C@@](O)(C(=O)Nc5nc(C)c(C(C)(C)C)s5)C4)c3c2)no1 [Example 221, (1 r,3r)-N-(5-(tert-butyl)-4-methylthiazol-2-yl)-1-hydroxy-3-((7-(5-methyl-1,2,4-oxadiazol-3-yl)isoquinolin-1-yl)amino)cyclobutane-1-carboxamide] | 6.88 |
| CCOC(=O)c1sc(NC(=O)CCNC(=O)c2cccc(N3CCCC3)c2)nc1C [Example 2, Ethyl 4-methyl-2-(3-(3-(pyrrolidin-1-yl)benzamido)propanamido)thiazole-5-carboxylate] | 5.40 |
| Cc1nc(N(C)C(=O)C[C@H](CC#N)NC(=O)c2cccc(-c3cnn(C)c3)c2)sc1C(=O)OC(C)C [Example 205] | 5.36 |
| Cc1nc(-c2cccc(C(=O)NCCC(=O)Nc3nc(C)c(/C=C/C4CCCC4)s3)c2)no1 [Example 93, N-[3-[[5-[(E)-2-cyclopentylvinyl]-4-methyl-thiazol-2-yl]amino]-3-oxo-propyl]-3-(5-methyl-1,2,4-oxadiazol-3-yl)benzamide] | 6.16 |

| SMILES | pIC50 |
| --- | --- |
| CCOC(=O)c1sc(NC(=O)CCNC(=O)c2cccc(-c3nc(C)no3)c2)nc1C [Example 34, Ethyl 4-methyl-2-(3-(3-(3-methyl-1,2,4-oxadiazol-5-yl)benzamido)propanamido)thiazole-5-carboxylate] | 7.00 |
| Cc1nc(-c2ccc3ccnc(N[C@H]4C[C@@H](C(=O)Nc5cc(C)c(CC(C)C)s5)C4)c3c2)no1 [Example 102, (1s,3s)-N-(5-isobutyl-4-methylthiophen-2-yl)-3-((7-(5-methyl-1,2,4-oxadiazol-3-yl)isoquinolin-1-yl)amino)cyclobutane-1-carboxamide formate] | 6.39 |
| COC(=O)c1sc(N(C)C(=O)C[C@@H](CC(=O)O)NC(=O)c2cccc(-c3noc(C)n3)c2)nc1C [Example 217] | 5.14 |
| Cc1nc(-c2cccc(C(=O)NCCC(=O)Nc3cn(C(=O)OC(C)C)c(C)n3)c2)no1 [Example 264] | 6.55 |
| CCCOC(=O)n1cnc(NC(=O)CCNC(=O)c2cccc(-c3noc(C)n3)c2)c1 [Example 266, Propyl 4-(3-{[3-(5-methyl-1,2,4-oxadiazol-3-yl)phenyl]formamido}-propanamido)-1 H-imidazole-1-carboxylate] | 5.47 |
| COC(=O)c1sc(NC(=O)CCNC(=O)c2cccc(-c3noc(C)n3)c2)nc1C [Example 62, Methyl 4-methyl-2-(3-(3-(5-methyl-1,2,4-oxadiazol-3-yl)benzamido)propanamido)thiazole-5-carboxylate] | 5.92 |
| COC(=O)c1sc(NC(=O)C[C@H](CC#N)NC(=O)c2cccc(-c3noc(C)n3)c2)nc1C [Example 197, Methyl 2-[(3S)-4-cyano-3-{[3-(5-methyl-1,2,4-oxadiazol-3-yl)phenyl]formamido}, butanamido]-4-methyl-1,3-thiazole-5-carboxylate] | 6.87 |
| CCOC(=O)c1sc(NC(=O)CCNC(=O)c2cccc(C(=O)OC)c2F)nc1C [Example 11, Ethyl 2-[3-[(2-fluoro-3-methoxycarbonyl-benzoyl)amino]propanoylamino]-4-methyl-thiazole-5-carboxylate] | 5.74 |
| CNCCC[C@@H](CC(=O)Nc1nc(C)c(C(C)(C)C)s1)Nc1nccc2ccc(-c3noc(C)n3)cc12 [Example 171, (S)-N-(5-(tert-butyl)-4-methylthiazol-2-yl)-3-((7-(5-methyl-1,2,4-oxadiazol-3-yl)isoquinolin-1-yl)amino)-6-(methylamino)hexanamide] | 6.83 |
| CCCc1nc(-c2cc(NC(=O)[C@@H](O)CNc3nccc4ccc(-c5noc(C)n5)cc34)nn2C)no1 [Example 182, (S)-2-hydroxy-3-((7-(5-methyl-1,2,4-oxadiazol-3-yl)isoquinolin-1-yl)amino)-N-(1-methyl-5-(5-propyl-1,2,4-oxadiazol-3-yl)-1 H-pyrazol-3-yl)propenamide] | 7.24 |
| CNCCC[C@@H](CC(=O)Nc1nc(C)c(C(C)(C)C)s1)NC(=O)c1cc(Cl)cc(-c2noc(C)n2)c1 [Example 157, (S)-N-(1-((5-(tert-butyl)-4-methylthiazol-2-yl)amino)-6-(methylamino)-1-oxohexan-3-yl)-3-chloro-5-(5-methyl-1,2,4-oxadiazol-3-yl)benzamide] | 6.43 |
| Cc1nc(-c2ccc3ccnc(N[C@H]4CCN(C(=O)c5cc(C(C)C)[nH]n5)C4)c3c2)no1 [Example 253, (S)-(5-isopropyl-1 H-pyrazol-3-yl)(3-((7-(5-methyl-1,2,4-oxadiazol-3-yl)isoquinolin-1-yl)amino)pyrrolidin-1-yl)methanone] | 5.47 |
| Cc1nc(NC(=O)C[C@H](CC#N)NC(=O)c2cccc(-c3cnn(C)c3)n2)sc1C(=O)OC(C)(C)C [Example 211, tert-Butyl 2-[(3S)-4-cyano-3-{[6-(1-methyl-1 H-pyrazol-4-yl)pyridin-2-yl]formamido}butanamido]-4-methyl-1,3-thiazole-5-carboxylate] | 5.89 |
| CCCc1nc(-c2cc(NC(=O)[C@@H](O)CNc3nccc4ccc(C)cc34)nn2C)no1 [Example 183, (S)-2-hydroxy-N-(1-methyl-5-(5-propyl-1,2,4-oxadiazol-3-yl)-1 H-pyrazol-3-yl)-3-((7-methylisoquinolin-1-yl)amino)propanamide] | 4.76 |
| Cc1nc(-c2cccc(C(=O)NCCC(=O)Nc3nc(C)c(C(=O)OC(C)(C)C)s3)c2F)no1 [Example 279] | 6.07 |
| CNCCC[C@@H](CC(=O)Nc1nc(C)c(C(=O)OC2CCC(F)(F)C2)s1)Nc1nccc2ccc(-c3noc(C)n3)cc12 (stereo partly drawn) [Example 170, 3,3-Difluorocyclopentyl 4-methyl-2-((S)-3-((7-(5-methyl-1,2,4-oxadiazol-3-yl)isoquinolin-1-yl)amino)-6-(methylamino)hexanamido)thiazole-5-carboxylate] | 8.40 |
